Experimental data reported in ChEMBL document CHEMBL1201862, “PubChem BioAssay data set” (2004).
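Interpolation was linear, between the two tested concentrations surrounding the appropriate level; five concentrations were tested over 48 hours in 96-well plates. GI50 marks 50% less growth.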 Calls of active or inactive are those of the source. No stated cut-off is given here; in the data, active = GI50 up to about 1.1 µM and inactive = higher.

Columns and labels:
Assay in all cases: inhibition of tumour cell growth, NCI panel, 48 h
UACC-62 = test system: UACC-62
Hs-578T = test system: Hs-578T
OVCAR-3 = test system: OVCAR-3
NCI/ADR-RES = test system: NCI/ADR-RES
HOP-92 = test system: HOP-92
CCRF-CEM = test system: CCRF-CEM
SK-MEL-5 = test system: SK-MEL-5
SK-MEL-2 = test system: SK-MEL-2
HOP-62 = test system: HOP-62
SK-MEL-28 = test system: SK-MEL-28
SF-295 = test system: SF-295
HCC 2998 = test system: HCC 2998
KM12 = test system: KM12
MDA-N = test system: MDA-N
786-0 = test system: 786-0
HL-60 = test system: HL-60
BT-549 = test system: BT-549
DU-145 = test system: DU-145
SF-539 = test system: SF-539
SW-620 = test system: SW-620
IGROV-1 = test system: IGROV-1
COLO 205 = test system: COLO 205
HCT-116 = test system: HCT-116
SR = test system: SR
NCI-H23 = test system: NCI-H23
PC-3 = test system: PC-3
A498 = test system: A498
SK-OV-3 = test system: SK-OV-3
ACHN = test system: ACHN
MCF7 = test system: MCF7
TK-10 = test system: TK-10
MDA-MB-231 = test system: MDA-MB-231
OVCAR-8 = test system: OVCAR-8
SF-268 = test system: SF-268
M14 = test system: M14
CAKI-1 = test system: CAKI-1
A549 = test system: A549
LOX IMVI = test system: LOX IMVI
NCI-H460 = test system: NCI-H460
HCT-15 = test system: HCT-15
NCI-H522 = test system: NCI-H522
U-251 = test system: U-251
OVCAR-4 = test system: OVCAR-4
K562 = test system: K562
NCI-H226 = test system: NCI-H226
SNB-19 = test system: SNB-19
T47D = test system: T47D
SN12C = test system: SN12C
OVCAR-5 = test system: OVCAR-5
MDA-MB-435 = test system: MDA-MB-435
RXF 393 = test system: RXF 393
UO-31 = test system: UO-31
UACC-257 = test system: UACC-257
EKVX = test system: EKVX
HT-29 = test system: HT-29
Malme-3M = test system: Malme-3M
MOLT-4 = test system: MOLT-4
SNB-75 = test system: SNB-75
RPMI-8226 = test system: RPMI-8226

**Q.** Which GI50 (UACC-62) does the source give for `N#Cc1c(N)nc2[nH]nc(N)c2c1-c1ccc(Cl)cc1` here?
**A.** 1.42 µM (inactive)

**Q.** What about the GI50 (Hs-578T) of the same molecule?
**A.** 2.5 µM (inactive)

**Q.** And the GI50 (OVCAR-3)?
**A.** 2.34 µM (inactive)

**Q.** What about the GI50 (NCI/ADR-RES) of the same molecule?
**A.** 7.66 µM (inactive)

**Q.** And the GI50 (HOP-92)?
**A.** 1.81 µM (inactive)

**Q.** What about the GI50 (CCRF-CEM) of the same molecule?
**A.** 4.95 µM (inactive)

**Q.** And the GI50 (SK-MEL-5)?
**A.** 3.84 µM (inactive)

**Q.** And the GI50 (SK-MEL-2)?
**A.** 1.88 µM (inactive)

**Q.** What about the GI50 (HOP-62) of the same molecule?
**A.** 6.75 µM (inactive)

**Q.** And the GI50 (SK-MEL-28)?
**A.** 6.95 µM (inactive)

**Q.** And the GI50 (SF-295)?
**A.** 6.03 µM (inactive)

**Q.** What about the GI50 (HCC 2998) of the same molecule?
**A.** 10 µM (inactive)

**Q.** And the GI50 (KM12)?
**A.** 4.12 µM (inactive)

**Q.** And the GI50 (MDA-N)?
**A.** 4.22 µM (inactive)

**Q.** And the GI50 (786-0)?
**A.** 7.94 µM (inactive)

**Q.** What about the GI50 (HL-60) of the same molecule?
**A.** 9.75 µM (inactive)

**Q.** What about the GI50 (BT-549) of the same molecule?
**A.** 2.73 µM (inactive)

**Q.** What about the GI50 (DU-145) of the same molecule?
**A.** 4.8 µM (inactive)

**Q.** What about the GI50 (SF-539) of the same molecule?
**A.** 6.38 µM (inactive)

**Q.** And the GI50 (SW-620)?
**A.** 13.8 µM (inactive)

**Q.** And the GI50 (IGROV-1)?
**A.** 1.84 µM (inactive)

**Q.** And the GI50 (COLO 205)?
**A.** 1.48 µM (inactive)

**Q.** And the GI50 (HCT-116)?
**A.** 5.52 µM (inactive)

**Q.** What about the GI50 (SR) of the same molecule?
**A.** > 22.6 µM (inactive)

**Q.** And the GI50 (NCI-H23)?
**A.** 3.76 µM (inactive)

**Q.** And the GI50 (PC-3)?
**A.** 2.65 µM (inactive)

**Q.** What about the GI50 (A498) of the same molecule?
**A.** 0.656 µM (active)

**Q.** What about the GI50 (SK-OV-3) of the same molecule?
**A.** 2.56 µM (inactive)

**Q.** What about the GI50 (ACHN) of the same molecule?
**A.** 2.49 µM (inactive)

**Q.** And the GI50 (MCF7)?
**A.** 3.03 µM (inactive)

**Q.** What about the GI50 (TK-10) of the same molecule?
**A.** 2.1 µM (inactive)

**Q.** What about the GI50 (MDA-MB-231) of the same molecule?
**A.** 2.65 µM (inactive)

**Q.** And the GI50 (OVCAR-8)?
**A.** 6.75 µM (inactive)

**Q.** And the GI50 (SF-268)?
**A.** 5.11 µM (inactive)

**Q.** What about the GI50 (M14) of the same molecule?
**A.** 3.33 µM (inactive)

**Q.** What about the GI50 (CAKI-1) of the same molecule?
**A.** 3.02 µM (inactive)

**Q.** And the GI50 (A549)?
**A.** 5.66 µM (inactive)

**Q.** What about the GI50 (LOX IMVI) of the same molecule?
**A.** 2.83 µM (inactive)

**Q.** What about the GI50 (NCI-H460) of the same molecule?
**A.** 3.15 µM (inactive)

**Q.** And the GI50 (HCT-15)?
**A.** 3.82 µM

**Q.** And the GI50 (NCI-H522)?
**A.** 2.56 µM (inactive)

**Q.** What about the GI50 (U-251) of the same molecule?
**A.** 19.3 µM (inactive)

**Q.** And the GI50 (OVCAR-4)?
**A.** 8.95 µM (inactive)

**Q.** What about the GI50 (K562) of the same molecule?
**A.** 16.9 µM (inactive)

**Q.** What about the GI50 (NCI-H226) of the same molecule?
**A.** 5.41 µM (inactive)

**Q.** And the GI50 (SNB-19)?
**A.** 29.2 µM (inactive)

**Q.** And the GI50 (T47D)?
**A.** 1.47 µM (inactive)

**Q.** And the GI50 (SN12C)?
**A.** 3.32 µM (inactive)

**Q.** What about the GI50 (OVCAR-5) of the same molecule?
**A.** 11.9 µM (inactive)

**Q.** What about the GI50 (MDA-MB-435) of the same molecule?
**A.** 5.85 µM (inactive)

**Q.** And the GI50 (RXF 393)?
**A.** 2.11 µM (inactive)

**Q.** What about the GI50 (UO-31) of the same molecule?
**A.** 2.42 µM (inactive)

**Q.** And the GI50 (UACC-257)?
**A.** 11.9 µM (inactive)

**Q.** What about the GI50 (EKVX) of the same molecule?
**A.** 5.21 µM (inactive)

**Q.** What about the GI50 (HT-29) of the same molecule?
**A.** 7.62 µM (inactive)

**Q.** What about the GI50 (Malme-3M) of the same molecule?
**A.** 2.1 µM (inactive)

**Q.** What about the GI50 (MOLT-4) of the same molecule?
**A.** 2.54 µM (inactive)

**Q.** For `COc1ccc(S(=O)(=O)O)cc1NS(=O)(=O)c1ccc(C)cc1`, which GI50 (UACC-62) is on record?
**A.** > 100 µM (inactive)

**Q.** What about the GI50 (Hs-578T) of the same molecule?
**A.** > 100 µM (inactive)

**Q.** And the GI50 (OVCAR-3)?
**A.** > 100 µM (inactive)

**Q.** And the GI50 (NCI/ADR-RES)?
**A.** > 100 µM (inactive)

**Q.** And the GI50 (CCRF-CEM)?
**A.** > 100 µM (inactive)

**Q.** And the GI50 (SK-MEL-5)?
**A.** > 100 µM (inactive)

**Q.** What about the GI50 (SK-MEL-2) of the same molecule?
**A.** > 100 µM (inactive)

**Q.** And the GI50 (HOP-62)?
**A.** > 100 µM (inactive)

**Q.** And the GI50 (SK-MEL-28)?
**A.** > 100 µM (inactive)

**Q.** What about the GI50 (SF-295) of the same molecule?
**A.** > 100 µM (inactive)

**Q.** What about the GI50 (KM12) of the same molecule?
**A.** > 100 µM (inactive)

**Q.** And the GI50 (MDA-N)?
**A.** > 100 µM (inactive)

**Q.** What about the GI50 (786-0) of the same molecule?
**A.** > 100 µM (inactive)

**Q.** What about the GI50 (HL-60) of the same molecule?
**A.** > 100 µM (inactive)

**Q.** And the GI50 (BT-549)?
**A.** > 100 µM (inactive)

**Q.** What about the GI50 (DU-145) of the same molecule?
**A.** > 100 µM (inactive)

**Q.** And the GI50 (SF-539)?
**A.** > 100 µM (inactive)

**Q.** And the GI50 (SW-620)?
**A.** > 100 µM (inactive)

**Q.** And the GI50 (IGROV-1)?
**A.** > 100 µM (inactive)

**Q.** And the GI50 (COLO 205)?
**A.** > 100 µM (inactive)

**Q.** And the GI50 (HCT-116)?
**A.** > 100 µM (inactive)

**Q.** And the GI50 (SR)?
**A.** > 100 µM (inactive)

**Q.** And the GI50 (NCI-H23)?
**A.** > 100 µM (inactive)

**Q.** And the GI50 (PC-3)?
**A.** > 100 µM (inactive)

**Q.** And the GI50 (A498)?
**A.** > 100 µM (inactive)

**Q.** And the GI50 (SK-OV-3)?
**A.** > 100 µM (inactive)

**Q.** And the GI50 (ACHN)?
**A.** > 100 µM (inactive)

**Q.** And the GI50 (MCF7)?
**A.** > 100 µM (inactive)

**Q.** What about the GI50 (TK-10) of the same molecule?
**A.** > 100 µM (inactive)

**Q.** What about the GI50 (MDA-MB-231) of the same molecule?
**A.** > 100 µM (inactive)

**Q.** What about the GI50 (OVCAR-8) of the same molecule?
**A.** > 100 µM (inactive)

**Q.** And the GI50 (SF-268)?
**A.** > 100 µM (inactive)

**Q.** What about the GI50 (M14) of the same molecule?
**A.** > 100 µM (inactive)

**Q.** And the GI50 (SNB-75)?
**A.** > 100 µM (inactive)

**Q.** What about the GI50 (CAKI-1) of the same molecule?
**A.** > 100 µM (inactive)

**Q.** What about the GI50 (A549) of the same molecule?
**A.** > 100 µM (inactive)

**Q.** And the GI50 (LOX IMVI)?
**A.** > 100 µM (inactive)

**Q.** And the GI50 (NCI-H460)?
**A.** > 100 µM (inactive)

**Q.** And the GI50 (HCT-15)?
**A.** > 100 µM

**Q.** What about the GI50 (NCI-H522) of the same molecule?
**A.** > 100 µM (inactive)

**Q.** And the GI50 (U-251)?
**A.** > 100 µM (inactive)

**Q.** And the GI50 (OVCAR-4)?
**A.** > 100 µM (inactive)

**Q.** What about the GI50 (K562) of the same molecule?
**A.** > 100 µM (inactive)

**Q.** And the GI50 (NCI-H226)?
**A.** > 100 µM (inactive)

**Q.** What about the GI50 (SNB-19) of the same molecule?
**A.** > 100 µM (inactive)

**Q.** What about the GI50 (T47D) of the same molecule?
**A.** > 100 µM (inactive)

**Q.** What about the GI50 (SN12C) of the same molecule?
**A.** > 100 µM (inactive)

**Q.** What about the GI50 (RPMI-8226) of the same molecule?
**A.** > 100 µM (inactive)

**Q.** And the GI50 (OVCAR-5)?
**A.** > 100 µM (inactive)

**Q.** What about the GI50 (MDA-MB-435) of the same molecule?
**A.** > 100 µM (inactive)

**Q.** And the GI50 (UO-31)?
**A.** > 100 µM (inactive)

**Q.** What about the GI50 (UACC-257) of the same molecule?
**A.** > 100 µM (inactive)

**Q.** And the GI50 (EKVX)?
**A.** > 100 µM (inactive)

**Q.** What about the GI50 (HT-29) of the same molecule?
**A.** > 100 µM (inactive)

**Q.** What about the GI50 (MOLT-4) of the same molecule?
**A.** > 100 µM (inactive)
